Patent publication US9132084B2, “Methods for administration and formulations for the treatment of regional adipose tissue” (NEOTHETICS, INC., priority 2009, dated 2015)

Key:
[1] = Phase 1 open-label pharmacokinetics and safety of SX and FP co-administered subcutaneously in healthy volunteers; conditions: 52 μg salmeterol xinafoate with 22 μg fluticasone propionate SC once per week for 4 weeks
Method: Part III: An open-label, multiple-dose pharmacokinetic study of the selected SX+FP combined dose administered subcutaneously either 1 time per week for 4 weeks or 3 times per week for 4 weeks in twelve (12) healthy volunteers.
A 400 μg/mL sterile, preservative-free, clear, aqueous solution for injection of SX is contained in a 5 mL single-use glass vial. Each 5 mL single-use glass vial contains 2.6 mL of SX solution (400 μg/mL) which is stored frozen (−15° C. to −25° C.) and protected from light until dose preparation. A 25 mg/mL sterile, preservative free, clear, aqueous solution for injection of FP is contained in a 2 mL single-use glass vial. Each 2 mL single-use glass vial contains 1.0 mL of FP solution (25 μg/mL) which is stored frozen (−15° C. to −25° C.) and protected from light until dose preparation. Diluent: A sterile, preservative free, clear, aqueous solution of 20% PEG 400, 1% polysorbate 80, and sterile water for injection contained in a 10 mL single-use glass vial. Each 10 mL single-use glass vial contains 5.0 mL of diluent solution which should be stored at room temperature (15° C. to 25° C.). Prior to administration, the drug products are thawed, mixed, and if necessary diluted with sterile diluent to provide the target concentrations for dose administration. […]

[2] = tested on: abdominal subcutaneous adipose tissue; assay: Phase 2 double-masked evaluation of safety and efficacy of SX and FP subcutaneous injection; conditions: total weekly SX/FP dose of 11 μg/22 μg
From the text: A Phase 2 study to examine the potential of selected doses of salmeterol xinafoate (SX) and fluticasone propionate (FP) co-administered to reduce abdominal subcutaneous adipose tissue, which is an interim surrogate to guide studies in subjects with symptomatic exophthalmos associated with thyroid-related eye disease (TED). The study also evaluated the safety and efficacy of subcutaneous injections of salmeterol xinafoate (SX) and fluticasone propionate (FP) for the reduction of abdominal (peri- and infra-umbilical) adiposity. The study compared the efficacy and safety of salmeterol xinafoate (SX) and fluticasone propionate (FP) at 1.0 μg FP and 0.05 μg SX once weekly to 1 mL placebo once weekly for 8 weeks for the reduction of measurable, abdominal subcutaneous adipose tissue. Additionally, the study evaluated in a double-masked, placebo-controlled design, the pharmacokinetics following multiple injected doses of salmeterol xinafoate (SX) and fluticasone propionate (FP) once weekly for 8 weeks. […]
All injections were performed in an outpatient setting. […] Once the study was completed and unmasked, only the serum samples collected from subjects receiving the higher combination dose were analyzed.

[3] = versus albuterol, a short-acting hydrophilic beta-adrenergic agonist; cited from earlier work
[4] = Plasma pharmacokinetics following single intravenous and subcutaneous injections of salmeterol xinafoate; conditions: for AUC(0-inf): AUCinf; for half-life: t1/2
Method: Salmeterol xinafoate was formulated in 5% PEG-400 in 0.9% saline, USP, at concentrations of 0.1, 1, 10, and 100 μg/mL. 1 male and 1 female non-naive Gottingen minipigs (18.4 to 19.5 kg at the time of the IV dose) were utilized. The animals were housed individually.
Each minipig received a single IV injection followed by SC doses of the salmeterol formulation. The IV dose was administered by slow bolus (1 minute; 0.0167 hr) into the marginal ear vein, whereas the first SC dose was administered as a bolus injection along the back (neck-region) where there was a longitudinal fat depot. The second SC dose was distributed in 5 separate SC injection sites. The fourth, fifth, and sixth administrations were SC administrations divided over 5 injection sits of different graded concentrations (0.1, 1, and 10 μg/mL of salmeterol in 5% PEG). Each dose was separated by at least a 3-day washout period. Blood samples (approximately 4 mL) were collected via the branchiocephalic plexus at pre-dose and at 2.00, 5.00, 10.0, 20.0, 30.0 and 45.0 minutes, and at 1.00, 2.00, 4.00, 8.00 and 24.0 hr post-dose. Blood samples were placed in tubes containing K2-EDTA as the anticoagulant. Samples were processed to plasma by centrifugation and stored frozen at approximately −70° C. (+/−15° C.) until shipment for analysis.
Plasma samples were analyzed for salmeterol using a qualified liquid chromatography/mass spectrometry/mass mass spectrometry (LC/MS/MS) method. The lower limit of quantitation (LLOQ) was 2.50 pg/mL. Samples were analyzed within a maximum of 14.0 days of collection.
Non-compartmental pharmacokinetic parameters were calculated using WinNonlin 5.2 software, NCA model 202, IV infusion input for the IV data and NCA model 200, extravascular input for the SC data. Individual plasma concentrations for each animal were used in the calculation of pharmacokinetic parameters. Nominal collection times and doses were used in the calculations. The area under the plasma concentration-time curve (AUC) was calculated using linear trapezoidal approximation (linear/log interpolation). Concentration values below the assay limit of quantitation were set to zero for calculations. The maximum plasma concentration (Cmax) and the time of its occurrence (Tmax) were verified by inspection. The half-life (t1/2) values were calculated using the last 3 plasma concentrations with nonzero values, if data permitted.

[5] = tested on: abdominal subcutaneous adipose tissue
From the text: To evaluate in a single masked, placebo-controlled design, the safety and exploratory efficacy measures of subcutaneous injections of three different doses of the combination of salmeterol xinafoate (SX) and fluticasone propionate (FP) administered by subcutaneous injection 1 or 2 times per week for 4 weeks to subjects with measurable abdominal subcutaneous adipose tissue.
A single-masked, placebo-controlled multiple-dose study of the safety and efficacy of three different doses of the combination of salmeterol xinafoate (SX) and fluticasone propionate (FP) administered by subcutaneous injection 1 or 2 times per week for 4 weeks in 60 subjects with measurable abdominal subcutaneous adipose tissue.
A 400 μg/mL sterile, preservative-free, clear, aqueous solution for injection of SX is contained in a 5 mL single-use glass vial. Each 5 mL single-use glass vial contains 2.6 mL of SX solution (400 μg/mL) which is stored frozen (−15° C. or below) and protected from light until dose preparation. A 25 mg/mL sterile, preservative free, clear, aqueous solution for injection of FP is contained in a 2 mL single-use glass vial. […]
Measurements of waist were taken at specified time points. […] The full waist circumference, and the right and the left hemi-circumferences were recorded.

[6] = female, Gottingen, minipig, in vivo, iv, 4 ug/kg
[7] = female, Gottingen, minipig, in vivo, sc, 0.4 ug/kg
[8] = female, Gottingen, minipig, in vivo, sc, 4 ug/kg
[9] = male, Gottingen, minipig, in vivo, iv, 4 ug/kg
[10] = male, Gottingen, minipig, in vivo, sc, 0.4 ug/kg
[11] = male, Gottingen, minipig, in vivo, sc, 4 ug/kg

## fluticasone propionate
[1]
  Cmax and AUC at day 22 compared to day 1: increase
[2]
  plasma levels relative to 505(b)(2) reference levels produced by an FDA-approved drug: ⅓-⅕

## OCc1cc(C(O)CNCCCCCCOCCCCc2ccccc2)ccc1O (racemic) [Salmeterol, ±2-(hydroxymethyl)-4-[1-hydroxy-2-[6-(4-phenylbutoxy)hexylamino]ethyl]-phenol]
[3]
  lipophilicity relative to albuterol: at least 10,000 times
[4]; SC5 (5 sites) 4 μg/kg, male 1-0771
  Tmax: 0.0833 h
[4]; both, Gottingen, minipig, in vivo
  salmeterol partition ratio (plasma Cmax ratio of subcutaneous to intravenous administration): 0.1
[4]; female, Gottingen, minipig, in vivo
  concentration at 0.0833 hr: 0.485 ng/mL
[4]; female, Gottingen, minipig, in vivo, 0.4 ug/kg, F (bioavailability)
  bioavailability: 112%
[4]; female, Gottingen, minipig, in vivo, 0.04 mg/kg
  concentration at 0.0833 hr: 0.00317 ng/mL
[4]; female, Gottingen, minipig, in vivo, iv
  concentration at 0.0833 hr: 1.3 ng/mL
[4]; [6]
  Vd: 22.1 L/kg
  clearance: 45.5 mL/min/kg
  AUC(0-inf): 1.47 ng·h/mL
  half-life: 9.52 h
[4]; female, Gottingen, minipig, in vivo, iv, 4 ug/kg, Cmax
  Cmax: 4.95 ng/mL
[4]; female, Gottingen, minipig, in vivo, iv, 4 ug/kg, Tmax
  Tmax: 0.0333 h
[4]; female, Gottingen, minipig, in vivo, sc
  concentration at 0.0833 hr: 0.227 ng/mL
[4]; female, Gottingen, minipig, in vivo, sc, 0.004 ug/kg, Cmax
  Cmax: 0.00308 ng/mL
[4]; female, Gottingen, minipig, in vivo, sc, 0.004 ug/kg, Tmax
  Tmax: 1 h
[4]; female, Gottingen, minipig, in vivo, sc, 0.04 ug/kg, Cmax
  Cmax: 0.00831 ng/mL
[4]; female, Gottingen, minipig, in vivo, sc, 0.04 ug/kg, Tmax
  Tmax: 0.0333 h
[4]; [7]
  F (bioavailability): 1.12
  AUC(0-inf): 0.164 ng·h/mL
  half-life: 2.88 h
[4]; female, Gottingen, minipig, in vivo, sc, 0.4 ug/kg, Cmax
  Cmax: 0.113 ng/mL
[4]; female, Gottingen, minipig, in vivo, sc, 0.4 ug/kg, Tmax
  Tmax: 0.0333 h
[4]; [8]
  AUCinf: 2.01 ng·h/mL
  Cmax: 0.626 ng/mL
  F (bioavailability): 1.37
  t1/2: 8.58 h
  AUC(0-inf): 1.85 ng·h/mL
  half-life: 6.02 h
[4]; female, Gottingen, minipig, in vivo, sc, 4 ug/kg, Cmax
  Cmax: 0.403 ng/mL
[4]; female, Gottingen, minipig, in vivo, sc, 4 ug/kg, F (bioavailability)
  bioavailability: 126%
[4]; female, Gottingen, minipig, in vivo, sc, 4 ug/kg, bioavailability
  bioavailability: 126 to 137%
[4]; male, Gottingen, minipig, in vivo
  concentration at 0.0833 hr: 0.681 ng/mL
[4]; male, Gottingen, minipig, in vivo, 0.4 ug/kg, F (bioavailability)
  bioavailability: 78.9%
[4]; male, Gottingen, minipig, in vivo, 0.04 mg/kg
  concentration at 0.0833 hr: 0.00277 ng/mL
[4]; male, Gottingen, minipig, in vivo, iv
  concentration at 0.0833 hr: 1.38 ng/mL
[4]; [9]
  Vd: 17.1 L/kg
  clearance: 38 mL/min/kg
  AUC(0-inf): 1.75 ng·h/mL
  half-life: 7.89 h
[4]; male, Gottingen, minipig, in vivo, iv, 4 ug/kg, Cmax
  Cmax: 4.29 ng/mL
[4]; male, Gottingen, minipig, in vivo, iv, 4 ug/kg, Tmax
  Tmax: 0.0333 h
[4]; male, Gottingen, minipig, in vivo, sc
  concentration at 0.0833 hr: 0.575 ng/mL
[4]; male, Gottingen, minipig, in vivo, sc, 0.04 ug/kg
  Tmax: 0.0833 h
[4]; male, Gottingen, minipig, in vivo, sc, 0.04 ug/kg, Cmax
  Cmax: 0.00277 ng/mL
[4]; [10]
  F (bioavailability): 0.789
  Tmax: 0.0833 h
  AUC(0-inf): 0.138 ng·h/mL
  half-life: 2.94 h
[4]; male, Gottingen, minipig, in vivo, sc, 0.4 ug/kg, Cmax
  Cmax: 0.0645 ng/mL
[4]; [11]
  AUCinf: 1.51 ng·h/mL
  Cmax: 0.681 ng/mL
  F (bioavailability): 0.863
  Tmax: 0.0833 h
  t1/2: 6.84 h
  AUC(0-inf): 1.29 ng·h/mL
  half-life: 5.92 h
[4]; male, Gottingen, minipig, in vivo, sc, 4 ug/kg, Cmax
  Cmax: 0.575 ng/mL
[4]; male, Gottingen, minipig, in vivo, sc, 4 ug/kg, F (bioavailability)
  bioavailability: 73.7%
[4]; male, Gottingen, minipig, in vivo, sc, 4 ug/kg, bioavailability
  bioavailability: 73.7 to 86.3%
[4]; minipig, in vivo
  partition ratio relative to the partition ratio of formoterol: about five times lower
[4]; minipig, in vivo, 0.004 ug/kg
  Cmax: 0 ng/mL

## OCc1cc(C(O)CNCCCCCCOCCCCc2ccccc2)ccc1O (stereo not drawn) [salmeterol xinafoate]
[5]; human clinical trial, FIGS. 3B and 7B
  efficacy of once per week versus twice per week dosing: more efficacious than twice per week dosing
[5]; lowest dose 0.5 μg salmeterol xinafoate once per week for 4 weeks, with fluticasone, versus higher weekly doses
  dose-therapeutic efficacy response (change in waist circumference): greatest therapeutic efficacy
